According to patent publication US20060068007A1, “Class of surfactant-like materials” (Boehringer Ingelheim Pharmaceuticals, Inc., priority 2004, published 2006):

Assay: Solubility of the active agent depending on pH
Assay type: physicochemical
Conditions: basic conditions
Experimental: The tablets were prepared similarly as described in Example 3.

- solubility: higher solubility in basic conditions
SMILES: COc1ccc2c(O[C@@H]3C[C@H]4C(=O)N[C@]5(C(=O)O)CC5/C=C\CCCCC[C@H](NC(=O)OC5CCCC5)C(=O)N4C3)cc(-c3csc(NC(C)C)n3)nc2c1 (stereo partly drawn) [(Z)-(1S,4R,14S,18R)-14-Cyclopentyloxycarbonylamino-18-[2-(2-isopropylamino-thiazol-4-yl)-7-methoxy-quinolin-4-yloxy]-2,15-dioxo-3,16-diaza-tricyclo[14.3.0.0^4,6]nonadec-7-ene-4-carboxylic acid]
